# According to patent US20250136608A1, “COMPOUNDS CONTAINING A GEM-DIFLUORIDE GROUP AND PREPARATION METHOD AND USE THEREOF” (CGENETECH (SUZHOU, CHINA) CO., LTD, priority 2022, published 2025):
# Legend:
# [1] = Oral pharmacokinetic test in mice; details: male, C57, mouse, in vivo, 10 mg/kg
# [2] = biological target: JAK3 (Homo sapiens, UniProt P52333); test: JAK3 kinase inhibitory activity test (HTRF); type: biochemical; details: JAK3 0.1 ng/μL, ATP 3 μM, substrate 1 μM, 3 h
# [3] = in vivo; details: male, C57, mouse, po
IC50 [2] [nM],AUC(0-inf) ([3]; 10 mg/kg) [ng·h/mL],AUC(0-t) ([3]; 10 mg/kg) [ng·h/mL],Cmax ([3]; 10 mg/kg) [ng/mL],MRT inf ([3]; 10 mg/kg) [min],MRT last ([3]; 10 mg/kg) [min],Tmax ([3]; 10 mg/kg) [min],half-life ([3]; 10 mg/kg) [min],SMILES,also measured
–,–,–,–,–,–,–,–,N#CCC1(n2cc(-c3ncnc4[nH]ccc34)cn2)CCC(F)(F)CC1 [Compound 1],AUC(0-inf) [1]: 2150 ng·h/mL; AUC(0-t) [1]: 2130 ng·h/mL; Cmax [1]: 1480 ng/mL; MRT inf [1]: 81 min; MRT last [1]: 75 min; Tmax [1]: 19.8 min; half-life [1]: 70.8 min
151,–,–,–,–,–,–,–,N#CCC1(n2cc(-c3ncnc4[nH]ccc34)cn2)CCC(C(F)(F)F)CC1 (centres unmarked) [Compound 3],–
402,–,–,–,–,–,–,–,N#CCC(C1CCC(F)(F)CC1)n1cc(-c2ncnc3[nH]ccc23)cn1 (centres unmarked) [Compound 4],–
488,2000,1980,1410,78.6,73.2,15,81.6,N#CCC(C1CCC(C(F)(F)F)CC1)n1cc(-c2ncnc3[nH]ccc23)cn1 (centres unmarked) [Compound 5],–
311,9240,9230,6320,69,68.4,15,50.4,N#CC[C@@H](CCC(F)(F)F)n1cc(-c2ncnc3[nH]ccc23)cn1 [Compound 6-1],–
116,4770,4760,6770,36.6,36,4.8,44.4,N#CC[C@H](CCC(F)(F)F)n1cc(-c2ncnc3[nH]ccc23)cn1 [Compound 6-2],–
479,1660,1660,3190,30.6,29.4,4.8,89.4,N#CCC(C1CC(F)(F)C1)n1cc(-c2ncnc3[nH]ccc23)cn1 (centres unmarked) [Compound 7],–
419,–,–,–,–,–,–,–,CC(C)(C(CC#N)n1cc(-c2ncnc3[nH]ccc23)cn1)C(F)(F)F (centres unmarked) [Compound 8],–
401,–,–,–,–,–,–,–,N#CCC(n1cc(-c2ncnc3[nH]ccc23)cn1)C1(C(F)(F)F)CCC1 (centres unmarked) [Compound 9],–
–,–,–,–,–,–,–,–,"N#CC[C@H](C1CCCC1)n1cc(-c2ncnc3[nH]ccc23)cn1 [Ruxolitinib, reference compound]",AUC(0-inf) ([3]; 5 mg/kg): 580 ng·h/mL; AUC(0-t) ([3]; 5 mg/kg): 578 ng·h/mL; Cmax ([3]; 5 mg/kg): 893 ng/mL; MRT inf ([3]; 5 mg/kg): 42.6 min; MRT last ([3]; 5 mg/kg): 42 min; Tmax ([3]; 5 mg/kg): 7.8 min; half-life ([3]; 5 mg/kg): 30 min
